From the supplement of paper PMC8612539

Test system: Mannheimia haemolytica
Test: minimum inhibitory concentration (MIC)
Method: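 Broth microdilution MIC (Sensititre BOPO7F bovine plate, CLSI methods) of 19 antimicrobials against field isolates of P. multocida, M. haemolytica, H. somni (deep nasopharyngeal swabs) and E. coli, Enterococcus spp. (rectal swabs) from weaned dairy heifers. Incubation 16-24 h at 35 C. MIC is the lowest concentration preventing visible growth. Values with <= or > lie at the tested range limits. Trimethoprim-sulfamethoxazole is given as the trimethoprim component of a 1:19 mixture.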

Measured: minimum inhibitory concentration

CO/N=C(\C(=O)N[C@@H]1C(=O)N2C(C(=O)O)=C(CSC(=O)c3ccco3)CS[C@H]12)c1csc(N)n1 [Ceftiofur]
≤ 0.25 mg/L: isolate (source animal id): 56 | isolate (source animal id): 57 | isolate (source animal id): 100 | isolate (source animal id): 103 | isolate (source animal id): 107 | isolate (source animal id): 108 | isolate (source animal id): 112 | isolate (source animal id): 113 | isolate (source animal id): 121 | isolate (source animal id): 122 | isolate (source animal id): 123 | isolate (source animal id): 126 | isolate (source animal id): 133 | isolate (source animal id): 135 | isolate (source animal id): 138 | isolate (source animal id): 141 | isolate (source animal id): 142 | isolate (source animal id): 145 | isolate (source animal id): 149 | isolate (source animal id): 151 | isolate (source animal id): 152 | isolate (source animal id): 154 | isolate (source animal id): 159 | isolate (source animal id): 162 | isolate (source animal id): 170 | isolate (source animal id): 171 | isolate (source animal id): 172 | isolate (source animal id): 173 | isolate (source animal id): 179 | isolate (source animal id): 180 | isolate (source animal id): 183 | isolate (source animal id): 186 | isolate (source animal id): 187 | isolate (source animal id): 188 | isolate (source animal id): 190 | isolate (source animal id): 191 | isolate (source animal id): 192 | isolate (source animal id): 201 | isolate (source animal id): 202 | isolate (source animal id): 209 | isolate (source animal id): 211 | isolate (source animal id): 220 | isolate (source animal id): 221 | isolate (source animal id): 223 | isolate (source animal id): 233 | isolate (source animal id): 237 | isolate (source animal id): 241 | isolate (source animal id): 252 | isolate (source animal id): 253 | isolate (source animal id): 259 | isolate (source animal id): 260 | isolate (source animal id): 262 | isolate (source animal id): 282 | isolate (source animal id): 287 | isolate (source animal id): 288 | isolate (source animal id): 291 | isolate (source animal id): 293 | isolate (source animal id): 298 | isolate (source animal id): 299 | isolate (source animal id): 300 | isolate (source animal id): 302 | isolate (source animal id): 304 | isolate (source animal id): 306 | isolate (source animal id): 308 | isolate (source animal id): 309 | isolate (source animal id): 313 | isolate (source animal id): 318 | isolate (source animal id): 320 | isolate (source animal id): 321 | isolate (source animal id): 323 | isolate (source animal id): 324 | isolate (source animal id): 326 | isolate (source animal id): 328 | isolate (source animal id): 329 | isolate (source animal id): 333 | isolate (source animal id): 335 | isolate (source animal id): 338
